Measurements from patent US20210386792A1, “A METHOD FOR INCREASING POPULATION OF SPERMATOGONIAL STEM CELLS” (priority 2018, published 2021).

What was measured:
TECs [1] = assay: TECs proliferation and apoptosis assays; assay type: cell-based, mouse; settings: TECs in culture, busulfan 800 μM vs DMSO
Protocol: TECs Proliferation and Apoptosis Assays
5×10^3 testicular ECs per well were plated on 8-chamber slide (LabteK) coated with 0.1% gelatin. Busulfan (800 μM) or DMSO were added to each well 24 hours after seeding and cultured for 72 or 96 hours. 10 μM BrdU (BD Pharmingen™) was added to media 72 hours after busulfan treatment, then incubated for 2 hours. Samples were stained with anti-BrdU (1:50; Invitrogen), anti-γ-H2AX (1:400; Millipore) and anti-cleaved caspase 3 (1:400; Cell Signaling). BrdU^+ cells in 10 random high-powered fields were counted and statistics were analyzed using Graph Pad Prism. Each condition was performed in triplicate.

TECs [2] = assay: Microvessel density (CD31 immunostaining) in testes sections from busulfan-treated mice; assay type: in vivo, mouse; settings: wild-type mice, 5 weeks after busulfan vs vehicle
Protocol: Testes were dissected from male mice were cryoprotected overnight in 20% (wt vol^−1) sucrose then frozen in OCT (Tissue-Tek). Testis sections (10 or 30 m) were blocked (5% normal goat serum and 0.1% bovine serum albumin in 0.1% PBS-T) for 1 hour and washed in 0.1% PBS-T. Primary antibodies: anti-CD31 rat-pAb (1:50; BD science, Cat: 550274), anti-PLZF rabbit-polyclonal Ab (1:50; Santa Cruz, Cat: 22839), anti-DDX4 rabbit pAb (1:200; Abcam, Cat: 13840), anti-Sox9 rabbit pAb (1:200; Millipore, Cat: ABE579), anti-GDNF rabbit polyclonal Ab (1:50; Santa Cruz, Cat: SC328) were diluted in blocking buffer and incubated for 2 hours at RT, then incubated with either anti-mouse Alexa 594 (1:1000, Thermo Fischer, Cat: A110323) or anti-rabbit Alexa 488 (1:1000, Thermo Fischer, Cat: A32723) at RT for 30 minutes. Sections were stained with for 1 min to detect nuclei. […] Digital images were analyzed for the area and density of endothelial cell markers, germline stem cell markers and GDNF by counting 5 random 20× fields per testis section.
Mice were sacrificed 5-6 weeks after Busulfan treatment and tissues were fixed in paraformaldehyde overnight and then embedded in paraffin. […] After all cross sectional areas were counted, the field was randomly moved and all cross-sectional tubules counted in that field. This was continuing until the 10-20 tubules were counted per slide. […]

GDNF = assay: Western blot of GDNF expression in whole testis lysates; assay type: in vivo, mouse; settings: 5 weeks after busulfan vs PBS
From the text: Testes harvested from vehicle or busulfan treated-wild type mice were homogenized in RIPA buffer and protein concentration quantified by the BioRad DC Protein Assay. Twenty-five ug of protein per sample were separated by SDS-PAGE, probed with anti-GDNF rabbit polyclonal antibody (1:500; Santa Cruz, Cat: 13147) or anti-cleaved Caspase 3 rabbit polyclonal antibody (1:1000; Cell Signaling, Cat: 9664) and detected by chemiluminescence (ECL, Amersham). Blots were stripped and re-probed with β-actin as a loading control. See Supplementary material for uncropped blots.
FIG. 1. a. Quantication of Gdnf mRNA in Sertoli cells and TECs, and GDNF levels by ELISA in conditioned media from Sertoli cells or TECs without or with FGF-2 (20 ngml-1) treatment for 3 days. b. Murine GFP+Thy1.2+SSCs were co-cultured with TECs or testicular cells depleted of CD31+ TECs but containing all other cell populations in the testes. After 3 weeks, SSC colonies were absent in CD31-depleted testicular cell co-cultures with Sertoli and PTM cells present, while a signicant number of GFP+ Thy1.2+ SSC colonies were present in co-cultures with TECs alone. c. Immunouorescence staining for CD31 (for ECs) on testis sections from wildtype mice 5 weeks after vehicle or busulfan treatment. […] Quantification of MVD and vessel length is shown on the right, n=3.

SSCs [3] = assay: Restoration of spermatogenesis after busulfan exposure; assay type: in vivo, mouse; settings: mice, no transplantation
SSCs [4] = settings: mice, no transplantation; cited from earlier work

CS(=O)(=O)OCCCCOS(C)(=O)=O [busulfan]
TEC apoptosis (cleaved caspase 3) (TECs [1]; 72 or 96 hours): increased apoptosis | TEC proliferation (BrdU) (TECs [1]; 72 hours): decreased proliferation | microvessel density in testes sections (TECs [2]): significant decrease | testis GDNF expression (GDNF): global decrease | time required for restoration of murine spermatogenesis post-busulfan treatment (SSCs [3]): 6 months | time to restoration of spermatogenesis following exposure to busulfan (SSCs [4]): 30-36 weeks
